# Reference: patent US10633407B2, “14-membered ketolides and methods of their preparation and use” (President and Fellows of Harvard College, priority 2014, dated 2020)
# How the values were obtained:
# Test in all cases: CLSI broth dilution MIC determination
# Format in all cases: cell-based
# K. pneumoniae ATCC 10031 = settings: Klebsiella pneumoniae, ATCC10031, K. pneumoniae ATCC 10031 (MP-14); read-out: MIC
# [1] = tested on: A. baumannii MP-576 Clinical-MDR; settings: Acinetobacter baumannii, read-out: MIC
# P. aeruginosa MP-7 PAO1 = settings: Pseudomonas aeruginosa, read-out: MIC
# [2] = tested on: K. pneumoniae MP-546 Clinical-MDR; settings: Klebsiella pneumoniae, read-out: MIC
# [3] = tested on: K. pneumoniae MP-548 clinical; settings: Klebsiella pneumoniae, MP548CLINICAL, read-out: MIC
# A. baumannii ATCC 19606 = settings: Acinetobacter baumannii, ATCC19606; A. baumannii ATCC 19606 (MP-15); read-out: MIC
# P. aeruginosa ATCC 27853 = settings: Pseudomonas aeruginosa, ATCC27853; P. aeruginosa ATCC 27853 (MP-3); read-out: MIC
# [4] = tested on: P. aeruginosa MP-8 PAO1:mex (mex-oprM-deletion); settings: Pseudomonas aeruginosa, PAO1
# [5] = tested on: A. baumannii MP-577 Clinical-AZT low; settings: Acinetobacter baumannii, read-out: MIC
# [6] = tested on: E. coli MP-532 clinical-cErmB; settings: Escherichia coli
# Procedure, shortened: (§1)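 MICs measured following CLSI broth dilution methodology. The strains tested include macrolide-resistant and multidrug-resistant isolates whose resistance genotypes can be constitutive or inducible.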
# E. coli MP-541 clinical = settings: Escherichia coli, MP541CLINICAL, read-out: MIC
# Procedure, shortened: as §1
# [7] = tested on: S. aureus (MRSA) MP-513 ST-228 cErm (Clinical-cErm); settings: Staphylococcus aureus, read-out: MIC
# Procedure, shortened: as §1
# S. aureus ATCC 29213 = settings: Staphylococcus aureus, ATCC29213; S. aureus ATCC 29213 (MP-12); read-out: MIC
# Procedure, shortened: as §1
# [8] = tested on: E. coli MP-9 ATCC25922:tolC; settings: Escherichia coli, ATCC25922
# Procedure, shortened: as §1
# S. aureus MRSA: USA300 = settings: Staphylococcus aureus; S. aureus MRSA: USA300 (MP-549, msr(a)); read-out: MIC
# Procedure, shortened: as §1
# [9] = tested on: S. aureus MP-17 ATCCBAA-977 (BAA 977 iErm); settings: Staphylococcus aureus; S. aureus MP-17, ATCCBAA-977, iErm; read-out: MIC
# Procedure, shortened: as §1
# E. coli ATCC 25922 = settings: Escherichia coli, ATCC25922, E. coli ATCC 25922 (MP-4); read-out: MIC
# Procedure, shortened: as §1
SMILES,MIC (K. pneumoniae ATCC 10031),MIC [1],MIC (P. aeruginosa MP-7 PAO1),MIC [2],MIC [3],MIC (A. baumannii ATCC 19606),MIC (P. aeruginosa ATCC 27853),MIC [4],MIC [5],MIC [6],MIC (E. coli MP-541 clinical),MIC [7],MIC (S. aureus ATCC 29213),MIC [8],MIC (S. aureus MRSA: USA300),MIC [9],MIC (E. coli ATCC 25922)
CC[C@H]1OC(=O)[C@H](C)C(=O)[C@H](C)[C@@H](O[C@@H]2OC(C)CC(N(C)C)C2O)[C@](C)(OC)C[C@@H](C)C(=O)[C@H](C)[C@H]2N(CC#CCn3cc(-c4cccnn4)nn3)C(=O)O[C@]12C (stereo partly shown) [FSM-130216],4 µg/mL,> 64 µg/mL,> 64 µg/mL,> 64 µg/mL,> 64 µg/mL,16 µg/mL,> 64 µg/mL,16 µg/mL,64 µg/mL,> 64 µg/mL,64 µg/mL,> 64 µg/mL,0.25 µg/mL,4 µg/mL,0.5 µg/mL,0.25 µg/mL,32 µg/mL
CC[C@H]1OC(=O)[C@@](C)(F)C(=O)[C@H](C)[C@@H](O[C@@H]2OC(C)CC(N(C)C)C2O)[C@](C)(OC)C[C@@H](C)C(=O)[C@H](C)[C@H]2N(CC#CCn3cc(-c4cc(F)nc(F)n4)nn3)C(=O)O[C@]12C (stereo partly shown) [FSM-22750],> 64 µg/mL,> 64 µg/mL,> 64 µg/mL,> 64 µg/mL,> 64 µg/mL,> 64 µg/mL,> 64 µg/mL,> 64 µg/mL,> 64 µg/mL,> 64 µg/mL,> 64 µg/mL,> 64 µg/mL,4 µg/mL,> 64 µg/mL,8 µg/mL,8 µg/mL,> 64 µg/mL
CC[C@H]1OC(=O)[C@H](C)C(=O)[C@H](C)[C@@H](O[C@@H]2OC(C)CC(N(C)C)C2O)[C@](C)(OC)C[C@@H](C)C(=O)[C@H](C)[C@H]2N(NCCCn3nnc4ccccc43)C(=O)O[C@]12C (stereo partly shown) [FSM-140133],4 µg/mL,> 64 µg/mL,64 µg/mL,> 64 µg/mL,64 µg/mL,8 µg/mL,64 µg/mL,8 µg/mL,64 µg/mL,> 64 µg/mL,16 µg/mL,> 64 µg/mL,0.25 µg/mL,4 µg/mL,0.5 µg/mL,0.25 µg/mL,16 µg/mL
CC[C@H]1OC(=O)[C@@](C)(F)C(=O)[C@H](C)[C@@H](O[C@@H]2OC(C)CC(N(C)C)C2O)[C@](C)(OC)C[C@@H](C)C(=O)[C@H](C)[C@H]2N(CC#CCn3cc(-c4cnc(N)s4)nn3)C(=O)O[C@]12C (stereo partly shown) [FSM-100633],2 µg/mL,> 64 µg/mL,32 µg/mL,64 µg/mL,32 µg/mL,4 µg/mL,32 µg/mL,4 µg/mL,16 µg/mL,> 64 µg/mL,8 µg/mL,64 µg/mL,0.125 µg/mL,1 µg/mL,0.125 µg/mL,0.125 µg/mL,8 µg/mL
CC[C@H]1OC(=O)[C@@](C)(F)C(=O)[C@H](C)[C@@H](O[C@@H]2OC(C)CC(N(C)C)C2O)[C@](C)(OC)C[C@@H](C)C(=O)[C@H](C)[C@H]2N(CC#CCn3cc(-c4cc(N)ncn4)nn3)C(=O)O[C@]12C (stereo partly shown) [FSM-22745],8 µg/mL,> 64 µg/mL,> 64 µg/mL,> 64 µg/mL,> 64 µg/mL,32 µg/mL,> 64 µg/mL,16 µg/mL,64 µg/mL,> 64 µg/mL,32 µg/mL,> 64 µg/mL,0.5 µg/mL,4 µg/mL,1 µg/mL,1 µg/mL,32 µg/mL
CC[C@H]1OC(=O)[C@H](C)C(=O)[C@H](C)[C@@H](O[C@@H]2OC(C)CC(N(C)C)C2O)[C@](C)(OC)C[C@@H](C)C(=O)[C@H](C)[C@H]2N(NCCCn3nc4ccccc4n3)C(=O)O[C@]12C (stereo partly shown) [FSM-140132],4 µg/mL,> 64 µg/mL,> 64 µg/mL,> 64 µg/mL,64 µg/mL,32 µg/mL,> 64 µg/mL,8 µg/mL,32 µg/mL,> 64 µg/mL,32 µg/mL,> 64 µg/mL,0.25 µg/mL,2 µg/mL,0.5 µg/mL,0.25 µg/mL,16 µg/mL
CC[C@H]1OC(=O)[C@@](C)(F)C(=O)[C@H](C)[C@@H](O[C@@H]2OC(C)CC(N(C)C)C2O)[C@](C)(OC)C[C@@H](C)C(=O)[C@H](C)[C@H]2N(CC#CCn3cc(-c4ncccn4)nn3)C(=O)O[C@]12C (stereo partly shown) [FSM-22741],4 µg/mL,> 64 µg/mL,> 64 µg/mL,> 64 µg/mL,64 µg/mL,8 µg/mL,> 64 µg/mL,8 µg/mL,32 µg/mL,> 64 µg/mL,32 µg/mL,> 64 µg/mL,0.125 µg/mL,4 µg/mL,0.25 µg/mL,0.125 µg/mL,16 µg/mL
CC[C@H]1OC(=O)[C@@](C)(F)C(=O)[C@H](C)[C@@H](O[C@@H]2OC(C)CC(N(C)C)C2O)[C@](C)(OC)C[C@@H](C)C(=O)[C@H](C)[C@H]2N(CC#CCn3cc(-c4cncc(N)n4)nn3)C(=O)O[C@]12C (stereo partly shown) [FSM-22747],8 µg/mL,> 64 µg/mL,> 64 µg/mL,> 64 µg/mL,> 64 µg/mL,16 µg/mL,> 64 µg/mL,16 µg/mL,32 µg/mL,> 64 µg/mL,32 µg/mL,> 64 µg/mL,0.25 µg/mL,4 µg/mL,0.5 µg/mL,0.25 µg/mL,32 µg/mL
